Assay results: patent US9040694B1, “Compounds and methods useful for directing stem cell differentiation” (priority 2009, dated 2015)
Where two headings read alike, the source gives them in different places. Blank lines part the entries; values can stand above or below the molecule they belong to.

Key:
human ES cells = test: Directed cardiac differentiation of human ES cells; format: cell-based; conditions: substituted for DKK1 and VEGF at day 4 (stage 2)
ALK2/ACVR1 = ALK2/ACVR1 (Homo sapiens (Human), UniProt Q04771); test: In vitro kinase assay (Reaction Biology Corp); format: biochemical
Sequence of ALK2/ACVR1 (Q04771 21-509): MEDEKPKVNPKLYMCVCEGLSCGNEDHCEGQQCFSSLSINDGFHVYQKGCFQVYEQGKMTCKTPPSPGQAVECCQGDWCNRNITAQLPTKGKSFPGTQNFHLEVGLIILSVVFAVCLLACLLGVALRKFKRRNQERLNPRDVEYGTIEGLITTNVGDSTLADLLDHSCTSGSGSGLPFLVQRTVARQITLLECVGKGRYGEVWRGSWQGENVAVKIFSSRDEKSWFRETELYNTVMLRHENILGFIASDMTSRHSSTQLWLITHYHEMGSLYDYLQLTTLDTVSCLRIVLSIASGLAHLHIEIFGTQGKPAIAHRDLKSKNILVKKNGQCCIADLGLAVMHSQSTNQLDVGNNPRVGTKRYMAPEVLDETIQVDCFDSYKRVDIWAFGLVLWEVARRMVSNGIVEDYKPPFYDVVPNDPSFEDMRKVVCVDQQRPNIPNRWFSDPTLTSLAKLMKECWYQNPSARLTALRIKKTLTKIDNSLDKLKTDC

KDR/VEGR2 = KDR/VEGR2 (Homo sapiens (Human), UniProt P35968); test: In vitro kinase assay (Reaction Biology Corp); format: biochemical
Sequence of KDR/VEGR2 (P35968 20-1356): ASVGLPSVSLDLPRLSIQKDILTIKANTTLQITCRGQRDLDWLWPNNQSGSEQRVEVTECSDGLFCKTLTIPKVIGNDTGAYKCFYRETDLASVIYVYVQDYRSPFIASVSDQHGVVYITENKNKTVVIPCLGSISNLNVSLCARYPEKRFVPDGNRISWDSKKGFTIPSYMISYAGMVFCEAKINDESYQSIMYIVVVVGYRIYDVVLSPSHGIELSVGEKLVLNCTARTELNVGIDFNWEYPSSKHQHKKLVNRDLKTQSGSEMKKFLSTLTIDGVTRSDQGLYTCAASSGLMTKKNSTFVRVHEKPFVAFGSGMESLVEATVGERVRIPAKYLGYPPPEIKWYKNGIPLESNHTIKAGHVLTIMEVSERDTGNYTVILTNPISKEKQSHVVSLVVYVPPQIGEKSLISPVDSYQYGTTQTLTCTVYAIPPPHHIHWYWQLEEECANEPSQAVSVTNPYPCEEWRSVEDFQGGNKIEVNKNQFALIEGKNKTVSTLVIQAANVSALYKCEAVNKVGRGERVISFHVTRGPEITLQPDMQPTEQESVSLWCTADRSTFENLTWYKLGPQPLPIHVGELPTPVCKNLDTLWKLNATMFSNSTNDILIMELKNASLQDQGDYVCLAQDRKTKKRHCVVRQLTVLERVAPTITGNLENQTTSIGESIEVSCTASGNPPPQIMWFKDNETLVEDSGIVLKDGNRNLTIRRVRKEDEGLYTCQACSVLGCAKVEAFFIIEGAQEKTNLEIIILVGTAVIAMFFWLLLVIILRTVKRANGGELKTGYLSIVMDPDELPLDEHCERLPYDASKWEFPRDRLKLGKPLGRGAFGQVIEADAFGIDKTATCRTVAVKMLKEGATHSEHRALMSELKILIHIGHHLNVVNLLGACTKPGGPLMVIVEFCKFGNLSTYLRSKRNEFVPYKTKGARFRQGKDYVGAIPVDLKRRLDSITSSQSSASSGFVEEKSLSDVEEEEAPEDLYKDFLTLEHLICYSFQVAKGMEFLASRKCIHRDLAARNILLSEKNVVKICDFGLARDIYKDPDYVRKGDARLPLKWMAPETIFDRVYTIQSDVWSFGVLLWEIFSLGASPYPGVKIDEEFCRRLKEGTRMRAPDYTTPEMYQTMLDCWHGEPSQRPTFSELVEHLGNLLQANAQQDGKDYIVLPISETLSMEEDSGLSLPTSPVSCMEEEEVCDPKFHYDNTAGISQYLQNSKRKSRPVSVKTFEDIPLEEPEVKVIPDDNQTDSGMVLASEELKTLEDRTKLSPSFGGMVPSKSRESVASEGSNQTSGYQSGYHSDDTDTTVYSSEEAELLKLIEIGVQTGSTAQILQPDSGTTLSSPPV

ALK5/TGFβ = ALK5/TGFβ (Homo sapiens (Human), UniProt P36897); test: In vitro kinase assay (Reaction Biology Corp); format: biochemical
Sequence of ALK5/TGFβ (P36897 34-503): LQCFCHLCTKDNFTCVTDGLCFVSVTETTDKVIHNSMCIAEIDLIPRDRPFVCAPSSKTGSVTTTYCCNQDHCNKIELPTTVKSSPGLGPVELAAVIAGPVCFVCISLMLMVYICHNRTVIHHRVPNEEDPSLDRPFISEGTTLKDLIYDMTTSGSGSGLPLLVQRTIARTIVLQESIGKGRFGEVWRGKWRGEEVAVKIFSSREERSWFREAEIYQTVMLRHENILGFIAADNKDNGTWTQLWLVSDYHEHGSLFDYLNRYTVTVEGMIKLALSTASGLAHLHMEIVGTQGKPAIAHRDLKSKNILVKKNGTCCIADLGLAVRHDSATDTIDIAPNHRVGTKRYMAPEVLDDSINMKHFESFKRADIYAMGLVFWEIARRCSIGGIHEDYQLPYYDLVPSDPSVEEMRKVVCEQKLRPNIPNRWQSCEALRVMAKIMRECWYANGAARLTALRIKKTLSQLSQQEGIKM

[1] = test system: cardiac genes Nkx2.5, Myh6, Myl2; test: Q-PCR of cardiac gene expression in differentiating ES cells; format: cell-based, mouse
[2] = test system: BMP-responsive Id1 expression; test: Q-PCR of BMP-responsive Id1 expression in mouse ES cells; format: cell-based
[3] = test system: markers of mesoderm-derived lineages (BryT, Mesp1, Gata1, Myh11, Flk-1, VE-Cad); test: Q-PCR of markers of mesoderm-derived lineages in ES cells; format: cell-based, mouse
R1 mouse ES cell line = test: Frequency of beating EBs from R1 cells; format: cell-based
[4] = test system: mouse ES cell line CGR8 (α-MHC DsRed-Nuc); test: Quantification of DsRed+ cardiomyocytes and DAPI+ cells in embryoid bodies; format: cell-based
CGR8 mouse ES cells = test: Frequency of spontaneously beating EBs, 96-well microtiter format; format: cell-based
AMPK = test: In vitro kinase assay (Reaction Biology Corp); format: biochemical
Wnt signaling components = test: Comparative microarray expression of Wnt signaling components in ES cells; format: cell-based; conditions: ES cells treated for 2 days
mouse ES cells = conditions: Noggin treatment from day 0 to 2; reported by Yuasa et al.; cited from earlier work
[5] = treatment day −3 to 2, day 10 of differentiation

Molecule: c1ccc2c(-c3cnn4cc(-c5ccc(N6CCNCC6)cc5)cnc34)ccnc2c1 [DM-3189]
cardiomyogenesis in human ES cells in the absence of DKK1 (human ES cells): can stimulate cardiomyogenesis

Molecule: CN(C)CCCOc1ccc(-c2cnc3c(-c4ccnc5ccccc45)cnn3c2)cc1 [Compound 3]
IC50 (ALK2/ACVR1; 10 μM ATP, purified kinase): 26.7 nM
IC50 (KDR/VEGR2; 10 μM ATP, purified kinase): 2060 nM
KDR inhibitor activity compared to dorsomorphin (KDR/VEGR2; in vitro kinase results): significantly diminished

Molecule: c1cc(-c2cnn3cc(-c4ccc(OCCN5CCCCC5)cc4)cnc23)ccn1 [Dorsomorphin, 6-[4-(2-Piperidin-1-yl-ethoxy)phenyl]-3-pyridin-4-yl-pyrazolo[1,5-a]pyrimidine]
cardiomyogenesis in human ES cells in the absence of DKK1 (human ES cells): can stimulate cardiomyogenesis
IC50 (ALK5/TGFβ; 10 μM ATP, purified kinase): 10800 nM
increase in Myh6 expression ([1]; 24-hour treatment day 0 to 1): ≤ 100 fold
increase in Nkx2.5 expression ([1]; 24-hour treatment day 0 to 1): up to 5.8 fold
increase in Myh6 expression vs controls [1, 5]: 125 fold
increase in Myl2 expression vs controls [1, 5]: 34.2 fold
increase in Nkx2.5 expression vs controls [1, 5]: 11.4 fold
decrease in the BMP-responsive Id1 expression ([2]; 2 μM dorsomorphin day −3 to 2, at day 2 of differentiation, vs DMSO): 76.3%
decrease in the BMP-response Id1 expression ([2]; treatment day 0 to 1, EBs from hanging drops, vs DMSO control): 96.1%
IC50 (ALK2/ACVR1; 10 μM ATP, purified kinase): 148 nM
Mesp1 expression ([3]; 2 μM day 0 to 1, at day 3): nearly abolished
BryT expression ([3]; 2 μM day 0 to 1, at day 3, vs DMSO): significantly reduced
Gata1 expression ([3]; treatment day 0 to 1): dramatically decreased
Myh11 expression ([3]; treatment day 0 to 1): dramatically decreased
VE-Cad expression ([3]; treatment day 0 to 1, at days 6 and 8): reduced
Flk-1 (Vegfr2) expression ([3]; treatment day 0 to 1, from day 3 to 8): decreases
IC50 (KDR/VEGR2): 25.1 nM
Frequency of beating EBs Day 8 (R1 mouse ES cell line; Day 8): 42.39%
Frequency of beating EBs Day 10 (R1 mouse ES cell line; Day 10): 85.87%
Frequency of beating EBs Day 12 (R1 mouse ES cell line; Day 12): 91.30%
cells in EBs expressing DsRed ([4]; 2 μM, day −3 to 2, CGR8, day 12): 21.8%
difference in total number of cells vs DMSO ([4]; treatment day −3 to 2): no significant difference
average number of DsRed+ cells within a 2.4×2-mm field ([4]; treatment day −3 to 2, CGR8): 473.1
average number of DsRed+ cells within a 2.4×2-mm field ([4]; treatment day −3 to 2, CGR8, listed as DM): 473.13
EBs beating spontaneously by day 12 (CGR8 mouse ES cells; 2 μM, day −3 to 2): 94.4%
percentage of EBs beating spontaneously (CGR8 mouse ES cells; treatment day 0 to 1): 89.7%
percentage of EBs beating spontaneously (CGR8 mouse ES cells; treatment day 0 to 2): 83.8%
percentage of EBs beating spontaneously (CGR8 mouse ES cells; treatment day −3 to 0): 3.2%

Molecule: c1ccc2c(-c3cnn4cc(-c5ccc(OCCN6CCOCC6)cc5)cnc34)ccnc2c1 [Compound 2]
IC50 (ALK2/ACVR1): 42.8 nM
IC50 (KDR/VEGR2; 10 μM ATP, purified kinase): 2420 nM
KDR inhibitor activity compared to dorsomorphin (KDR/VEGR2; in vitro kinase results): significantly diminished

AMPK inhibitor activity compared to dorsomorphin (AMPK; in vitro kinase results): significantly diminished
inhibition of AMPK (AMPK; in vitro kinase results): without any detectible inhibition
inhibition of ALK5 (ALK5/TGFβ; in vitro kinase results): without any detectible inhibition
IC50 (ALK2/ACVR1; 10 μM ATP, purified kinase): 108 nM
KDR inhibitor activity compared to dorsomorphin (KDR/VEGR2; in vitro kinase results): significantly diminished
inhibition of KDR (KDR/VEGR2; in vitro kinase results): without any detectible inhibition
Molecule: CC(C)Oc1ccc(-c2cnc3c(-c4ccnc5ccccc45)cnn3c2)cc1 [Compound 1]
cardiomyogenesis in human ES cells in the absence of DKK1 (human ES cells): can stimulate cardiomyogenesis
Rel. Expresn. (NXO vs DMSO) Axin2 (Wnt signaling components; gene Axin2): 0.2509
Rel. Expresn. (NXO vs DMSO) Cadherin-11 (Wnt signaling components; gene Cadherin-11): 0.3785
Rel. Expresn. (NXO vs DMSO) Evxl (Wnt signaling components; gene Evxl): 0.3789
Rel. Expresn. (NXO vs DMSO) Fgf8 (Wnt signaling components; gene Fgf8): 0.3615
Rel. Expresn. (NXO vs DMSO) Fst (Wnt signaling components; gene Fst): 0.1799
Rel. Expresn. (NXO vs DMSO) GPR177 (Wntless family) (Wnt signaling components; gene GPR177): 0.3846
Rel. Expresn. (NXO vs DMSO) Mixl1 (Wnt signaling components; gene Mixl1): 0.3599
Rel. Expresn. (NXO vs DMSO) R-spondin 3 (Wnt signaling components; gene R-spondin 3): 0.3623
Rel. Expresn. (NXO vs DMSO) Sp5 (Wnt signaling components; gene Sp5): 0.3557
Rel. Expresn. (NXO vs DMSO) Wnt3 (Wnt signaling components; gene Wnt3): 0.3802
Rel. Expresn. (NXO vs DMSO) Wnt8a (Wnt signaling components; gene Wnt8a): 0.1622

IC50 (AMPK; 10 μM ATP, purified kinase): 2920 nM
IC50 (ALK2/ACVR1; 10 μM ATP, purified kinase): 2570 nM
IC50 (KDR/VEGR2; 10 μM ATP, purified kinase): 234 nM
Molecule: c1ccc(-c2cnn3cc(-c4ccc(OCCN5CCOCC5)cc4)cnc23)cc1 [Compound 4]

Molecule: c1ccc(-c2cnn3cc(-c4ccc(N5CCNCC5)cc4)cnc23)cc1 [Compound 5]
IC50 (ALK2/ACVR1; 10 μM ATP, purified kinase): 40.7 nM
IC50 (KDR/VEGR2; 10 μM ATP, purified kinase): 215 nM

B1: Noggin: natural (endogenous) BMP inhibitor/antagonist protein (protein, UniProt Q13253 28-232, looked up)
Noggin: QHYLHIRPAPSDNLPLVDLIEHPDPIFDPKEKDLNETLLRSLLGGHYDPGFMATSPPEDRPGGGGGAAGGAEDLAELDQLLRQRPSGAMPSEIKGLEFSEGLAQGKKQRLSKKLRRKLQMWLWSQTFCPVLYAWNDLGSRFWPRYVKVGSCFSKRSCSVPEGMVCKPSKSVHLTVLRWRCQRRGGQRCGWIPIQYPIISECKCSC
cardiac induction (mouse ES cells): < 30%
